Reference: patent US10106534B2 (CELGENE QUANTICEL RESEARCH, INC., priority 2014, dated 2018)

Legend:
[1] = tested on: KYSE-150 esophageal carcinoma cell line; test: In vitro cell-based assay: cellular proliferation via BrdU incorporation (ELISA); design: species or system human; conditions: Homo sapiens, KYSE-150, 168 hours compound incubation
Experimental: The primary cellular assay for JMJD2C inhibition is an assay which measures cellular proliferation via Bromodeoxyuridine (BrdU) incorporation after 168 hours of compound incubation. Cell lines tested include the JMJD2C gene amplified cell line KYSE-150. This is a quantitative ELISA assay measuring DNA incorporation of BrdU during S-phase as a direct readout of cellular proliferation.
Assay Principle: This is a colorimetric immunoassay for the quantification of cell proliferation. Cells treated for 168 hours with test compounds are assayed for their ability to go through S-phase as a measure of their proliferative potential.
Assay Method: The human KYSE-150 (SMAD4 mut, TP53 mut) esophageal carcinoma cell line was seeded at 2,000 cells/well on a 96-well tissue culture treated plate. After an overnight incubation, cells were treated with compound in an 11-point dilution series with final concentrations ranging from 100 μM to 2 nM. Cells were then incubated in the presence of compound for 168 hours. After compound incubation the cells were assayed using a BrdU Cell Proliferation ELISA (Roche). The cells were first incubated with BrdU labeling reagent for 2 hours. After 2 hours, the BrdU incorporated cells were fixed and denatured, probed with an anti-BrdU-Peroxidase antibody for 1.5 hours and washed. Finally, a tetramethylbenzidine peroxidase substrate was added to each well for 15 minutes followed by a H2SO4 stop solution. The plate was read at 450 nm, and the raw optical density data was transferred into XLFit (IDBS) for IC50 calculation using the formula: fit=(D+((Vmax*(x^n))/((x^n)+(Km^n))))

JMJD2C = JMJD2C (Homo sapiens (Human), UniProt Q9H3R0); test: In vitro enzyme inhibition assay for JMJD2C activity (TR-FRET); format: biochemical
Chain of JMJD2C (Q9H3R0 2-372): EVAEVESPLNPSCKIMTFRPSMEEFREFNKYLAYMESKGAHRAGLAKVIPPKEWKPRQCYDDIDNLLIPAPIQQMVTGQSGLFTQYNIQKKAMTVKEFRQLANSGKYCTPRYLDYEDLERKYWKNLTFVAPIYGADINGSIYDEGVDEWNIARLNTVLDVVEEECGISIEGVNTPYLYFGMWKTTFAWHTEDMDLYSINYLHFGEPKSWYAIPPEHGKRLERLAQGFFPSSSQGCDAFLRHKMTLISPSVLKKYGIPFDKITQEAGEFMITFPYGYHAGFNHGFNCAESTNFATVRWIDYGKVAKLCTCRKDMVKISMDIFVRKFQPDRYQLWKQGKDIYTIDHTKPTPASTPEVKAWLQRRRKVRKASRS
Outline: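 Demethylation product H3K9me2 quantified by TR-FRET ratio 665/615 after EDTA stop and 1 h with Eu-anti-H3K9me2 and streptavidin-APC; IC50 by curve fit. Reaction: 0.3 nM JMJD2C (AA 2-372, baculovirus), 2 μM α-ketoglutarate, 300 nM biotin-H3K9me3 peptide, pH 7.3 HEPES with Fe(II)/ascorbate, 30 min room temperature.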

Row | Compound | IC50 [1] | IC50 (JMJD2C)
1 | COc1ccccc1-c1ccc2c(c1)OCC[C@H]2CNc1cnccc1C(=O)O [Example 116, 3-({[(4R)-7-(2-methoxyphenyl)-3,4-dihydro-2H-1-benzopyran-4-yl]methyl}amino)pyridine-4-carboxylic acid] | 100 to 1000 nM | 100 to 1000 nM
2 | CN(c1ccc2c(c1)COC2)c1ccc2c(c1)CCC[C@H]2CNc1cnccc1C(=O)O [Example 132, 3-({[(1R)-6-[(1,3-dihydro-2-benzofuran-5-yl)(methyl)amino]-1,2,3,4-tetrahydronaphthalen-1-yl]methyl}amino)pyridine-4-carboxylic acid] | ≤ 100 nM | 100 to 1000 nM
3 | O=C(O)c1ccncc1NCC1CCCc2cc(OCC3CCOCC3)ccc21 (centres unmarked) [Example 63, 3-({[6-(oxan-4-ylmethoxy)-1,2,3,4-tetrahydronaphthalen-1-yl]methyl}amino)pyridine-4-carboxylic acid] | > 10000 nM | 100 to 1000 nM
4 | CN(c1ccc(C2CC2)cc1)c1ccc2c(c1)CCC[C@H]2CNc1cnccc1C(=O)O [Example 161, 3-({[(1R)-6-[(4-cyclopropylphenyl)(methyl)amino]-1,2,3,4-tetrahydronaphthalen-1-yl]methyl}amino)pyridine-4-carboxylic acid] | ≤ 100 nM | 1000 to 10000 nM
5 | Cc1ccccc1-c1ccc2c(c1)OCC[C@H]2CNc1cnccc1C(=O)O [Example 101, 3-({[(4R)-7-(2-methylphenyl)-3,4-dihydro-2H-1-benzopyran-4-yl]methyl}amino)pyridine-4-carboxylic acid] | ≤ 100 nM | 100 to 1000 nM
6 | CN(c1ccc(-n2cccn2)cc1)c1ccc2c(c1)OCC[C@H]2CNc1cnccc1C(=O)O [Example 189, 3-({[(4R)-7-{methyl[4-(1H-pyrazol-1-yl)phenyl]amino}-3,4-dihydro-2H-1-benzopyran-4-yl]methyl}amino)pyridine-4-carboxylic acid] | 100 to 1000 nM | 100 to 1000 nM
7 | CC(C)c1ccc(N(C)c2ccc3c(c2)OCC[C@H]3CNc2cnccc2C(=O)O)nc1 [Example 199, 3-({[(4R)-7-{methyl[5-(propan-2-yl)pyridin-2-yl]amino}-3,4-dihydro-2H-1-benzopyran-4-yl]methyl}amino)pyridine-4-carboxylic acid] | ≤ 100 nM | 100 to 1000 nM
8 | COc1ccc(F)cc1-c1ccc2c(c1)OCC[C@H]2CNc1cnccc1C(=O)O [Example 102, 3-({[(4R)-7-(5-fluoro-2-methoxyphenyl)-3,4-dihydro-2H-1-benzopyran-4-yl]methyl}amino)pyridine-4-carboxylic acid] | 100 to 1000 nM | 100 to 1000 nM
9 | Cc1cccc(-c2ccc3c(c2)OCC[C@H]3CNc2cnccc2C(=O)O)c1 [Example 30, 3-({[(4R)-7-(3-methylphenyl)-3,4-dihydro-2H-1-benzopyran-4-yl]methyl}amino)pyridine-4-carboxylic acid] | 100 to 1000 nM | 100 to 1000 nM
10 | CN(c1ccc(F)cc1)c1ccc2c(c1)CCC[C@H]2CNc1cnccc1C(=O)O [Example 8, 3-({[(1R)-6-[(4-fluorophenyl)(methyl)amino]-1,2,3,4-tetrahydronaphthalen-1-yl]methyl}amino)pyridine-4-carboxylic acid] | ≤ 100 nM | 100 to 1000 nM
11 | O=C(O)c1ccncc1NCC1CCCc2cc(N3CCCc4ccccc43)ccc21 (centres unmarked) [Example 4, 3-({[6-(1,2,3,4-tetrahydroquinolin-1-yl)-1,2,3,4-tetrahydronaphthalen-1-yl]methyl}amino)pyridine-4-carboxylic acid] | 100 to 1000 nM | 1000 to 10000 nM
12 | CCCOc1ccc2c(c1)CCCC2CNc1cnccc1C(=O)O (centres unmarked) [Example 59, 3-{[(6-propoxy-1,2,3,4-tetrahydronaphthalen-1-yl)methyl]amino}pyridine-4-carboxylic acid] | 1000 to 10000 nM | 100 to 1000 nM
13 | CN(c1ccc(OCC2CC2)cc1)c1ccc2c(c1)OCC[C@H]2CNc1cnccc1C(=O)O [Example 211, 3-({[(4R)-7-{[4-(cyclopropylmethoxy)phenyl](methyl)amino}-3,4-dihydro-2H-1-benzopyran-4-yl]methyl}amino)pyridine-4-carboxylic acid] | ≤ 100 nM | 100 to 1000 nM
14 | CN(c1ccc(N2CCCC2)cc1)c1ccc2c(c1)OCC[C@H]2CNc1cnccc1C(=O)O [Example 179, 3-({[(4R)-7-{methyl[4-(pyrrolidin-1-yl)phenyl]amino}-3,4-dihydro-2H-1-benzopyran-4-yl]methyl}amino)pyridine-4-carboxylic acid] | ≤ 100 nM | 100 to 1000 nM
15 | COc1cc2c(cc1C)C(CNc1cnccc1C(=O)O)CCC2 (centres unmarked) [Example 94, 3-{[(6-methoxy-7-methyl-1,2,3,4-tetrahydronaphthalen-1-yl)methyl]amino}pyridine-4-carboxylic acid] | 100 to 1000 nM | 100 to 1000 nM
16 | O=C(O)c1ccncc1NC[C@@H]1CCOc2cc(Sc3cccc(F)c3)ccc21 [Example 53, 3-({[(4R)-7-[(3-fluorophenyl)sulfanyl]-3,4-dihydro-2H-1-benzopyran-4-yl]methyl}amino)pyridine-4-carboxylic acid] | 100 to 1000 nM | 100 to 1000 nM
17 | CCN(c1ccccc1)c1ccc2c(c1)CCC[C@H]2CNc1cnccc1C(=O)O [Example 10, 3-({[(1R)-6-[ethyl(phenyl)amino]-1,2,3,4-tetrahydronaphthalen-1-yl]methyl}amino)pyridine-4-carboxylic acid] | ≤ 100 nM | 100 to 1000 nM
18 | O=C(O)c1ccncc1NC[C@@H]1CCOc2cc(-c3cccc(F)c3Cl)ccc21 [Example 44, 3-({[(4R)-7-(2-chloro-3-fluorophenyl)-3,4-dihydro-2H-1-benzopyran-4-yl]methyl}amino)pyridine-4-carboxylic acid] | 100 to 1000 nM | 100 to 1000 nM
19 | COc1cc(N(C)c2ccc3c(c2)OCC[C@H]3CNc2cnccc2C(=O)O)ccc1F [Example 112, 3-({[(4R)-7-[(4-fluoro-3-methoxyphenyl)(methyl)amino]-3,4-dihydro-2H-1-benzopyran-4-yl]methyl}amino)pyridine-4-carboxylic acid] | 1000 to 10000 nM | 100 to 1000 nM
20 | CC(C)Oc1ccc(N(C)c2ccc3c(c2)OCC[C@H]3CNc2cnccc2C(=O)O)cc1 [Example 210, 3-({[(4R)-7-{methyl[4-(propan-2-yloxy)phenyl]amino}-3,4-dihydro-2H-1-benzopyran-4-yl]methyl}amino)pyridine-4-carboxylic acid] | ≤ 100 nM | 100 to 1000 nM
21 | CN(c1ccc(Cl)cc1)c1ccc2c(c1)CCC[C@H]2CNc1cnccc1C(=O)O [Example 9, 3-({[(1R)-6-[(4-chlorophenyl)(methyl)amino]-1,2,3,4-tetrahydronaphthalen-1-yl]methyl}amino)pyridine-4-carboxylic acid] | ≤ 100 nM | 1000 to 10000 nM
22 | CCCOc1ccc(N(C)c2ccc3c(c2)OCC[C@H]3CNc2cnccc2C(=O)O)cc1 [Example 212, 3-({[(4R)-7-[methyl(4-propoxyphenyl)amino]-3,4-dihydro-2H-1-benzopyran-4-yl]methyl}amino)pyridine-4-carboxylic acid] | ≤ 100 nM | 100 to 1000 nM
23 | Cc1cc(F)ccc1Oc1ccc2c(c1)CCC[C@H]2CNc1cnccc1C(=O)O [Example 64, 3-({[(1R)-6-(4-fluoro-2-methylphenoxy)-1,2,3,4-tetrahydronaphthalen-1-yl]methyl}amino)pyridine-4-carboxylic acid] | ≤ 100 nM | 100 to 1000 nM
24 | O=C(O)c1ccncc1NC[C@@H]1CCCc2cc(OC(F)F)ccc21 [Example 61, 3-({[(1R)-6-(difluoromethoxy)-1,2,3,4-tetrahydronaphthalen-1-yl]methyl}amino)pyridine-4-carboxylic acid] | 1000 to 10000 nM | 100 to 1000 nM
25 | CN(c1ccc(N2CCC2)cc1)c1ccc2c(c1)CCC[C@H]2CNc1cnccc1C(=O)O [Example 180, 3-({[(1R)-6-{[4-(azetidin-1-yl)phenyl](methyl)amino}-1,2,3,4-tetrahydronaphthalen-1-yl]methyl}amino)pyridine-4-carboxylic acid] | ≤ 100 nM | 100 to 1000 nM
26 | O=C(O)c1ccncc1NCC1CCCc2c1ccc1c2OCC1 (centres unmarked) [Example 92, 3-({2H,3H,6H,7H,8H,9H-naphtho[1,2-b]furan-6-ylmethyl}amino)pyridine-4-carboxylic acid] | 1000 to 10000 nM | 100 to 1000 nM
27 | CN(c1ccc(C2CCOCC2)cc1)c1ccc2c(c1)CCC[C@H]2CNc1cnccc1C(=O)O [Example 175, 3-({[(1R)-6-{methyl[4-(oxan-4-yl)phenyl]amino}-1,2,3,4-tetrahydronaphthalen-1-yl]methyl}amino)pyridine-4-carboxylic acid] | ≤ 100 nM | 1000 to 10000 nM
28 | CN(c1ccc2c(c1)OCC[C@H]2CNc1cnccc1C(=O)O)c1ccc(F)cc1F [Example 104, 3-({[(4R)-7-[(2,4-difluorophenyl)(methyl)amino]-3,4-dihydro-2H-1-benzopyran-4-yl]methyl}amino)pyridine-4-carboxylic acid] | 100 to 1000 nM | 100 to 1000 nM
